From patent publication US9670206B2, “Pyrido[4,3-B]pyrazine-2-carboxamides as neurogenic agents for the treatment of neurodegenerative disorders” (Hoffmann-La Roche Inc., priority 2013, dated 2017)

test system: human embryonic stem cell derived neural stem cells (NSCs); assay: Neural stem cell proliferation assay (neurogenesis assay, ATP levels by CellTiterGlo); format: cell-based; details: 96 h, compound concentration at which 150% activity of control (100%) is reached, NSC proliferation, ATP readout after 4 days incubation
Experimental: Neural Stem Cell Proliferation Assay
Neurogenic properties of small molecules are determined based on the proliferation of human embryonic stem cell derived neural stem cells (NSCs) which were derived via a dual smad inhibition as previously described (Chambers, S. M., et al., Highly efficient neural conversion of human ES and iPS cells by dual inhibition of SMAD signaling, Nature biotechnology, 2009. 27(3): p. 275-80.) Compounds respond is measured by the increase in cells based on ATP levels (Promega:CellTiterGlo®) after an incubation period of 4 days. NSCs are thawed and expanded over 3 passages. On the 14th day, NSCs are seeded in Polyornithin/Laminin coated 384 well plates at a cell density of 21,000 cells/cm^2 in a media volume of 38 μl. 4 hours after cell seeding, compound solutions are added at a volume of 2 μl. Stock solutions of the compounds (water, 5% DMSO) are diluted to obtain a dose response (11 points, dilution factor is 2), ranging from 8 μM to 8 nM. Controls are run to consistently determine the neurogenic properties of the cells: Negative (neutral) control is cell culture Media (final DMSO concentration: 0.25%). Positive controls are: • 1. cell culture Media+100 ng/ml FGF2 (final DMSO concentration: 0.1%) • 2. cell culture Media+20 ng/ml EGF (final DMSO concentration: 0.1%) • 3. cell culture Media+100 ng/ml Wnt3a (final DMSO concentration: 0.1%) After 4 days incubation at 37° C., 5% CO2, the amount of ATP per well is quantified. The ATP concentration is proportional to the cell number. ATP is quantified by using the Promega CellTiterGlo® kit. The CellTiterGlo® reagents contain a cell lysis buffer, a thermo stable luciferase (UltraGlo™ recombinant luciferase), magnesium and luciferin. Luciferin reacts with ATP producing oxyluciferin, AMP and light. The luminescence signal is proportional to the ATP content. The value of negative (neutral) control is determined for each assay plate by taking the average of 16 negative control wells. The neurogenic compound response is calculated for each compound as (compound/Negative Control)*100. The values of EC150 from the dose response curve are determined for each test compound. The EC150 is the compound concentration at which 150% activity of control (100%) is reached.

| Structure (SMILES) | EC (150% of control) [µM] |
| --- | --- |
| O=C(c1cnc2cncc(-c3ccc(Cl)cc3F)c2n1)N1CCC(O)C1 (centres unmarked) [Example 38, (8-(4-Chloro-2-fluorophenyl)pyrido[4,3-b]pyrazin-2-yl)(3-hydroxypyrrolidin-1-yl)methanone] | 0.1 |
| NC(=O)c1cnc2cncc(-c3ccc(Cl)c(F)c3)c2n1 [Example 23, 8-(4-Chloro-3-fluorophenyl)pyrido[4,3-b]pyrazine-2-carboxamide] | 0.1 |
| O=C(c1cnc2cncc(-c3ccc(Cl)c(F)c3)c2n1)N1CCC(O)C1 (centres unmarked) [Example 44, (8-(4-Chloro-3-fluorophenyl)pyrido[4,3-b]pyrazin-2-yl)(3-hydroxypyrrolidin-1-yl)methanone] | 0.27 |
| O=C(c1cnc2cncc(-c3ccc(Cl)nc3)c2n1)N1CCC(O)C1 (centres unmarked) [Example 43, (8-(6-Chloropyridin-3-yl)pyrido[4,3-b]pyrazin-2-yl)(3-hydroxypyrrolidin-1-yl)methanone] | 0.03 |
| NC(=O)c1cnc2cncc(-c3ccc(F)c(F)c3)c2n1 [Example 27, 8-(3,4-Difluorophenyl)pyrido[4,3-b]pyrazine-2-carboxamide] | 0.12 |
| CC(NC(=O)c1cnc2cncc(-c3ccccc3Cl)c2n1)C(C)(C)O (centres unmarked) [Example 37, 8-(2-Chlorophenyl)-N-(3-hydroxy-3-methylbutan-2-yl)pyrido[4,3-b]pyrazine-2-carboxamide] | 1.13 |
| NC(=O)c1cnc2cncc(-c3ccc(OC(F)(F)F)cc3)c2n1 [Example 19, 8-(4-(Trifluoromethoxy)phenyl)pyrido[4,3-b]pyrazine-2-carboxamide] | 0.09 |
| O=C(c1cnc2cncc(-c3ccc(C(F)(F)F)cc3F)c2n1)N1CCC(O)C1 (centres unmarked) [Example 45, (8-(2-Fluoro-4-(trifluoromethyl)phenyl)pyrido[4,3-b]pyrazin-2-yl)(3-hydroxypyrrolidin-1-yl)methanone] | 1.48 |
| CC(C)(C)NC(=O)c1cnc2cncc(-c3ccc(C(F)(F)F)cc3)c2n1 [Example 35, N-tert-Butyl-8-(4-(trifluoromethyl)phenyl)pyrido[4,3-b]pyrazine-2-carboxamide] | 0.32 |
| N#CC1(NC(=O)c2cnc3cncc(Br)c3n2)CC1 [Example 3, 8-Bromo-N-(1-cyanocyclopropyl)pyrido[4,3-b]pyrazine-2-carboxamide] | 2.32 |
| O=C(c1cnc2cncc(-c3ccc(Cl)cc3Cl)c2n1)N1CCC(O)C1 (centres unmarked) [Example 39, (8-(2,4-Dichlorophenyl)pyrido[4,3-b]pyrazin-2-yl)(3-hydroxypyrrolidin-1-yl)methanone] | 0.11 |
| N#Cc1ccc(-c2cncc3ncc(C(N)=O)nc23)cc1 [Example 34, 8-(4-Cyanophenyl)pyrido[4,3-b]pyrazine-2-carboxamide] | 0.15 |
| NC(=O)c1cnc2cncc(-c3ccc(C(F)(F)F)cc3F)c2n1 [Example 17, 8-(2-Fluoro-4-(trifluoromethyl)phenyl)pyrido[4,3-b]pyrazine-2-carboxamide] | 0.08 |
| O=C(NCc1ccccc1)c1cnc2cncc(-c3cccnc3)c2n1 [Example 31, N-Benzyl-8-(pyridin-3-yl)pyrido[4,3-b]pyrazine-2-carboxamide] | 0.47 |
| NC(=O)c1cnc2cncc(-c3cc(C(F)(F)F)ccc3F)c2n1 [Example 20, 8-(2-Fluoro-5-(trifluoromethyl)phenyl)pyrido[4,3-b]pyrazine-2-carboxamide] | 0.22 |
| NC(=O)c1cnc2cncc(-c3ccccc3F)c2n1 [Example 16, 8-(2-Fluorophenyl)pyrido[4,3-b]pyrazine-2-carboxamide] | 0.06 |
| NC(=O)c1cnc2cncc(-c3ccc(Cl)nc3)c2n1 [Example 18, 8-(6-Chloropyridin-3-yl)pyrido[4,3-b]pyrazine-2-carboxamide] | 0.21 |
